According to ChEMBL document CHEMBL1152842, “Synthesis, Raman, FT-IR, NMR spectroscopic data and antimicrobial activity of mixed aza-oxo-thia macrocyclic compounds” (2009):

Key:
Format in all cases: functional
Staphylococcus aureus [1] = assay: Antibacterial activity against Staphylococcus aureus ATCC 6538 at 10 units after 24 hrs by disk diffusion method
[2] = system: Mycolicibacterium smegmatis; assay: Antibacterial activity against Mycobacterium smegmatis CCM 2067 at 10 units after 24 hrs by disk diffusion method
Escherichia coli [3] = assay: Antibacterial activity against Escherichia coli ATCC 11230 at 10 units after 24 hrs by disk diffusion method
Klebsiella pneumoniae [4] = assay: Antibacterial activity against Klebsiella pneumoniae UC57 at 10 units after 24 hrs by disk diffusion method
Micrococcus luteus [5] = assay: Antibacterial activity against Micrococcus luteus La 2971 at 10 units after 24 hrs by disk diffusion method
Listeria monocytogenes [6] = assay: Antibacterial activity against Listeria monocytogenes ATCC 15313 at 10 units after 24 hrs by disk diffusion method
Bacillus cereus [7] = assay: Antibacterial activity against Bacillus cereus ATCC 7064 at 10 units after 24 hrs by disk diffusion method
Pseudomonas aeruginosa [8] = assay: Antibacterial activity against Pseudomonas aeruginosa ATCC 27853 at 10 units after 24 hrs by disk diffusion method
Proteus vulgaris [9] = assay: Antibacterial activity against Proteus vulgaris ATCC 8427 at 10 units after 24 hrs by disk diffusion method
Staphylococcus aureus [10] = assay: Antibacterial activity against Staphylococcus aureus ATCC 6538 at 30 ug after 24 hrs by disk diffusion method; settings: ATCC 6538, 24 h, read-out: IZ
Bacillus cereus [11] = assay: Antibacterial activity against Bacillus cereus ATCC 7064 at 30 ug after 24 hrs by disk diffusion method; settings: ATCC 7064, 24 h, read-out: IZ
Listeria monocytogenes [12] = assay: Antibacterial activity against Listeria monocytogenes ATCC 15313 at 30 ug after 24 hrs by disk diffusion method; settings: ATCC 15313, 24 h, read-out: IZ
Proteus vulgaris [13] = assay: Antibacterial activity against Proteus vulgaris ATCC 8427 at 30 ug after 24 hrs by disk diffusion method; settings: ATCC 8427, 24 h, read-out: IZ
[14] = system: Mycolicibacterium smegmatis; assay: Antibacterial activity against Mycobacterium smegmatis CCM 2067 at 30 ug after 24 hrs by disk diffusion method; settings: CCM 2067, 24 h, read-out: IZ
Escherichia coli [15] = assay: Antibacterial activity against Escherichia coli ATCC 11230 at 30 ug after 24 hrs by disk diffusion method; settings: ATCC 11230, 24 h, read-out: IZ
Pseudomonas aeruginosa [16] = assay: Antibacterial activity against Pseudomonas aeruginosa ATCC 27853 at 30 ug after 24 hrs by disk diffusion method; settings: ATCC 27853, 24 h, read-out: IZ
Klebsiella pneumoniae [17] = assay: Antibacterial activity against Klebsiella pneumoniae UC57 at 30 ug after 24 hrs by disk diffusion method; settings: read-out: IZ
Micrococcus luteus [18] = assay: Antibacterial activity against Micrococcus luteus La 2971 at 30 ug after 24 hrs by disk diffusion method; settings: read-out: IZ
Micrococcus luteus [19] = assay: Antibacterial activity against Micrococcus luteus La 2971 at 1 ug after 24 hrs by disk diffusion method; settings: read-out: IZ
[20] = system: Mycolicibacterium smegmatis; assay: Antibacterial activity against Mycobacterium smegmatis CCM 2067 at 1 ug after 24 hrs by disk diffusion method; settings: CCM 2067, 24 h, read-out: IZ
Pseudomonas aeruginosa [21] = assay: Antibacterial activity against Pseudomonas aeruginosa ATCC 27853 at 1 ug after 24 hrs by disk diffusion method; settings: ATCC 27853, 24 h, read-out: IZ
Staphylococcus aureus [22] = assay: Antibacterial activity against Staphylococcus aureus ATCC 6538 at 1 ug after 24 hrs by disk diffusion method; settings: ATCC 6538, 24 h, read-out: IZ
Bacillus cereus [23] = assay: Antibacterial activity against Bacillus cereus ATCC 7064 at 1 ug after 24 hrs by disk diffusion method; settings: ATCC 7064, 24 h, read-out: IZ
Proteus vulgaris [24] = assay: Antibacterial activity against Proteus vulgaris ATCC 8427 at 1 ug after 24 hrs by disk diffusion method; settings: ATCC 8427, 24 h, read-out: IZ
Escherichia coli [25] = assay: Antibacterial activity against Escherichia coli ATCC 11230 at 1 ug after 24 hrs by disk diffusion method; settings: ATCC 11230, 24 h, read-out: IZ
Klebsiella pneumoniae [26] = assay: Antibacterial activity against Klebsiella pneumoniae UC57 at 1 ug after 24 hrs by disk diffusion method; settings: read-out: IZ
Listeria monocytogenes [27] = assay: Antibacterial activity against Listeria monocytogenes ATCC 15313 at 1 ug after 24 hrs by disk diffusion method; settings: ATCC 15313, 24 h, read-out: IZ
Bacillus cereus [28] = assay: Antibacterial activity against Bacillus cereus ATCC 7064 after 24 hrs by twofold serial dilution method
Proteus vulgaris [29] = assay: Antibacterial activity against Proteus vulgaris ATCC 8427 after 24 hrs by twofold serial dilution method
Pseudomonas aeruginosa [30] = assay: Antibacterial activity against Pseudomonas aeruginosa ATCC 27853 after 24 hrs by twofold serial dilution method
[31] = system: Mycolicibacterium smegmatis; assay: Antibacterial activity against Mycobacterium smegmatis CCM 2067 after 24 hrs by twofold serial dilution method
Escherichia coli [32] = assay: Antibacterial activity against Escherichia coli ATCC 11230 after 24 hrs by twofold serial dilution method
Micrococcus luteus [33] = assay: Antibacterial activity against Micrococcus luteus La 2971 after 24 hrs by twofold serial dilution method
Klebsiella pneumoniae [34] = assay: Antibacterial activity against Klebsiella pneumoniae UC57 after 24 hrs by twofold serial dilution method
Listeria monocytogenes [35] = assay: Antibacterial activity against Listeria monocytogenes ATCC 15313 after 24 hrs by twofold serial dilution method
Staphylococcus aureus [36] = assay: Antibacterial activity against Staphylococcus aureus ATCC 6538 after 24 hrs by twofold serial dilution method
Candida albicans = assay: Antifungal activity against Candida albicans ATCC 10231 after 48 hrs by twofold serial dilution method
Debaryomyces hansenii [37] = assay: Antifungal activity against Debaryomyces hansenii DSM 70238 at 1 ug after 72 hrs by disk diffusion method
Rhodotorula mucilaginosa [38] = assay: Antifungal activity against Rhodotorula rubra DSM 70403 after 48 hrs by twofold serial dilution method
Kluyveromyces marxianus [39] = assay: Antifungal activity against Kluyveromyces fragilis NRRL 2415 after 48 hrs by twofold serial dilution method
[40] = system: Hanseniaspora guilliermondii; assay: Antifungal activity against Hanseniaspora guilliermondii DSM 3432 after 48 hrs by twofold serial dilution method
[41] = system: Hanseniaspora guilliermondii; assay: Antifungal activity against Hanseniaspora guilliermondii DSM 3432 at 1 ug after 72 hrs by disk diffusion method
Kluyveromyces marxianus [42] = assay: Antifungal activity against Kluyveromyces fragilis NRRL 2415 at 1 ug after 72 hrs by disk diffusion method
Debaryomyces hansenii [43] = assay: Antifungal activity against Debaryomyces hansenii DSM 70238 after 48 hrs by twofold serial dilution method
Rhodotorula mucilaginosa [44] = assay: Antifungal activity against Rhodotorula rubra DSM 70403 at 1 ug after 72 hrs by disk diffusion method

## CC1(C)S[C@@H]2[C@H](NC(=O)Cc3ccccc3)C(=O)N2[C@H]1C(=O)O [PENICILLIN G]
Staphylococcus aureus [1]
  inhibition zone (IZ): 13 mm
[2]
  inhibition zone (IZ): 15 mm
Escherichia coli [3]
  inhibition zone (IZ): 18 mm
Klebsiella pneumoniae [4]
  inhibition zone (IZ): 18 mm
Micrococcus luteus [5]
  inhibition zone (IZ): 8 mm
Listeria monocytogenes [6]
  inhibition zone (IZ): 10 mm
Bacillus cereus [7]
  inhibition zone (IZ): 10 mm
Pseudomonas aeruginosa [8]
  inhibition zone (IZ): 14 mm
Proteus vulgaris [9]
  inhibition zone (IZ): 36 mm

## CN(C)[C@@H]1C(O)=C(C(N)=O)C(=O)[C@@]2(O)C(O)=C3C(=O)c4c(O)cccc4[C@@](C)(O)[C@H]3C[C@@H]12 [TETRACYCLINE]
Staphylococcus aureus [10]
  zone of inhibition at 30 µg/disc: 26 mm
Bacillus cereus [11]
  zone of inhibition at 30 µg/disc: 26 mm
Listeria monocytogenes [12]
  zone of inhibition at 30 µg/disc: 28 mm
Proteus vulgaris [13]
  zone of inhibition at 30 µg/disc: 22 mm
[14]
  zone of inhibition at 30 µg/disc: 24 mm
Escherichia coli [15]
  zone of inhibition at 30 µg/disc: 28 mm
Pseudomonas aeruginosa [16]
  zone of inhibition at 30 µg/disc: 25 mm
Klebsiella pneumoniae [17]
  zone of inhibition at 30 µg/disc: 30 mm
Micrococcus luteus [18]
  zone of inhibition at 30 µg/disc: 34 mm

## CN[C@H](CC(C)C)C(=O)N[C@H]1C(=O)N[C@@H](CC(N)=O)C(=O)N[C@H]2C(=O)N[C@H]3C(=O)N[C@H](C(=O)N[C@H](C(=O)O)c4cc(O)cc(O)c4-c4cc3ccc4O)[C@H](O)c3ccc(c(Cl)c3)Oc3cc2cc(c3O[C@@H]2O[C@H](CO)[C@@H](O)[C@H](O)[C@H]2O[C@H]2C[C@](C)(N)[C@H](O)[C@H](C)O2)Oc2ccc(cc2Cl)[C@H]1O [VANCOMYCIN]
Micrococcus luteus [19]
  zone of inhibition at 1 µg/disc: 10 mm
[20]
  zone of inhibition at 1 µg/disc: 20 mm
Pseudomonas aeruginosa [21]
  zone of inhibition at 1 µg/disc: 18 mm
Staphylococcus aureus [22]
  zone of inhibition at 1 µg/disc: 13 mm
Bacillus cereus [23]
  zone of inhibition at 1 µg/disc: 20 mm
Proteus vulgaris [24]
  zone of inhibition at 1 µg/disc: 34 mm
Escherichia coli [25]
  zone of inhibition at 1 µg/disc: 22 mm
Klebsiella pneumoniae [26]
  zone of inhibition at 1 µg/disc: 22 mm
Listeria monocytogenes [27]
  zone of inhibition at 1 µg/disc: 26 mm

## GENTAMICIN
Bacillus cereus [28]
  MIC: 6.25 µg/mL
Proteus vulgaris [29]
  MIC: 25 µg/mL
Pseudomonas aeruginosa [30]
  MIC: 6.25 µg/mL
[31]
  MIC: 12.5 µg/mL
Escherichia coli [32]
  MIC: 6.25 µg/mL
Micrococcus luteus [33]
  MIC: 6.25 µg/mL
Klebsiella pneumoniae [34]
  MIC: 6.25 µg/mL
Listeria monocytogenes [35]
  MIC: 12.5 µg/mL
Staphylococcus aureus [36]
  MIC: 25 µg/mL

## NYSTATIN
Candida albicans
  MIC: 6.25 µg/mL
Debaryomyces hansenii [37]
  inhibition zone (IZ): 16 mm
Rhodotorula mucilaginosa [38]
  MIC: 3.12 µg/mL
Kluyveromyces marxianus [39]
  MIC: 6.25 µg/mL
[40]
  MIC: 3.12 µg/mL
[41]
  inhibition zone (IZ): 21 mm
Kluyveromyces marxianus [42]
  inhibition zone (IZ): 18 mm
Debaryomyces hansenii [43]
  MIC: 12.5 µg/mL
Rhodotorula mucilaginosa [44]
  inhibition zone (IZ): 20 mm
